Assay [1] has as its system 3T3 cells. As to the kind of experiment: MTT cell proliferation assay, 3T3. It is filed as cell-based, mouse. The conditions noted are these: read-out: MTT Assay IC50, 3T3. A digest of the protocol:
(§1)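 Absorbance at 490 nm of solubilized formazan, produced during roughly 4 h MTT incubation, gave percent inhibition relative to negative control. Compounds spanned eight concentrations between 1 nM and 30 μM on cells plated overnight at 5,000-10,000 per well.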
A general note: Formazan colour is commonly taken as a measure of viable cells.

Assay [2] concerns Z138 cells. The experiment in a line: MTT cell proliferation assay, Z138. In kind it is cell-based. To be noted: read-out: MTT Assay IC50, Z138. A digest of the protocol:
as §1

Assay [3] concerns MS751 cells. As to the kind of experiment: MTT cell proliferation assay, MS751. To be noted: read-out: MTT Assay IC50, MS751. It is filed as cell-based, human. A digest of the protocol: as §1
Setting [4] is: Mus musculus, NIH3T3, 3T3 cells, eight concentrations 1 nM to 30 μM, incubation approximately 64-72 hours.
[5] abbreviates: Homo sapiens, Z-138, Z138 cells, eight concentrations 1 nM to 30 μM, incubation approximately 64-72 hours.
Setting [6] is: Homo sapiens, MS751, MS751 cells, eight concentrations 1 nM to 30 μM, incubation approximately 64-72 hours.
Setting [7] is: Mus musculus, NIH3T3, 3T3 cells, approximately 64-72 hours incubation.
Where [8] appears, read: Homo sapiens, Z-138, Z138 cells, approximately 64-72 hours incubation.
Where [9] appears, read: Homo sapiens, MS751, MS751 cells, approximately 64-72 hours incubation.

Where two headings read alike, the source gives them in different places. Some results are limits rather than exact numbers.

The IC50 is the midpoint of a concentration-inhibition curve.

For the compound `CC(=O)c1ccc(-c2cc(Cl)c3c(c2)CC(CNC(=O)/C=C/c2cncnc2)O3)s1` (stereo not drawn) [Compound 254, (E)-N-((5-(5-acetylthiophen-2-yl)-7-chloro-2,3-dihydrobenzofuran-2-yl)methyl)-3-(pyrimidin-5-yl)acrylamide], the IC50 in assay [1] (setting [4]), in assay [2] (setting [5]) and in assay [3] (setting [6]) was > 30 µM each time.

Regarding `CC(=O)c1ccc(-c2cc(Cl)c3c(c2)CC(CNC(=O)/C=C/c2ccc(N(C)C)nc2)O3)s1` (stereo not drawn) [Compound 295, (E)-N-((5-(5-acetylthiophen-2-yl)-7-chloro-2,3-dihydrobenzofuran-2-yl)methyl)-3-(6-(dimethylamino)pyridin-3-yl)acrylamide], the IC50 in assay [1] (setting [7]), in assay [2] (setting [8]) and in assay [3] (setting [9]) was > 30 µM each time.

Regarding `CC(=O)c1ccc(-c2cc(Cl)c3c(c2)CC(CNC(=O)/C=C/c2cccnc2)O3)s1` (stereo not drawn) [Compound 122, (E)-N-((5-(5-acetylthiophen-2-yl)-7-chloro-2,3-dihydrobenzofuran-2-yl)methyl)-3-(pyridin-3-yl)acrylamide], the concentration for half-maximal inhibition (IC50) in assay [1] (3T3 cells, eight concentrations 1 nM to 30 μM, incubation approximately 64-72 hours) lay within 0.1 to 5 µM; in assay [2] (Z138 cells, eight concentrations 1 nM to 30 μM, incubation approximately 64-72 hours) it was 0.1 to 5 µM; in assay [3] (MS751 cells, eight concentrations 1 nM to 30 μM, incubation approximately 64-72 hours) it was 0.1 to 5 µM.

Consider `CN1CCN(C(=O)c2ccc(-c3cc(Cl)c4c(c3)CC(CNC(=O)/C=C/c3ccc(N)nc3)O4)cc2)CC1` (stereo not drawn) [Compound 237, (E)-3-(6-aminopyridin-3-yl)-N-((7-chloro-5-(4-(4-methylpiperazine-1-carbonyl)phenyl)-2,3-dihydrobenzofuran-2-yl)methyl)acrylamide], for which the IC50 in assay [1] (setting [7]) was 0.1 to 5 µM; in assay [2] (setting [8]), < 0.1 µM; in assay [3] (setting [9]), < 0.1 µM.

As for `Cc1noc(C)c1-c1cc(Cl)c2c(c1)CC(CNC(=O)/C=C/c1cccnn1)O2` (stereo not drawn) [Compound 235, (E)-N-((7-chloro-5-(3,5-dimethylisoxazol-4-yl)-2,3-dihydrobenzofuran-2-yl)methyl)-3-(pyridazin-3-yl)acrylamide], the IC50 in assay [1] (setting [7]) was in the range of 5 to 30 µM; in assay [2] (setting [8]) it was 0.1 to 5 µM; in assay [3] (setting [9]), 0.1 to 5 µM.

In the case of `CCOC(=O)c1ccc(-c2cc(Cl)c3c(c2)CC(CNC(=O)/C=C/c2cccnc2)O3)cc1` (stereo not drawn) [Compound 128, (E)-ethyl 4-(7-chloro-2-((3-(pyridin-3-yl)acrylamido)methyl)-2,3-dihydrobenzofuran-5-yl)benzoate], the IC50 in assay [1] (setting [4]) was 0.1 to 5 µM; in assay [2] (setting [5]) it was < 0.1 µM; in assay [3] (setting [6]), 0.1 to 5 µM.

Take `CC(=O)c1ccc(-c2cc(Cl)c3c(c2)CC(CNC(=O)/C=C/c2sc4ccccc4c2Cl)O3)s1` (stereo not drawn) [Compound 291, (E)-N-((5-(5-acetylthiophen-2-yl)-7-chloro-2,3-dihydrobenzofuran-2-yl)methyl)-3-(3-chlorobenzo[b]thiophen-2-yl)acrylamide]: the IC50 in assay [1] (setting [7]), in assay [2] (setting [8]) and in assay [3] (setting [9]) was > 30 µM each time.

Turning to `O=C(/C=C/c1cccnc1)NCC1Cc2cc(-c3ccc(C(=O)O)cc3)cc(Cl)c2O1` (stereo not drawn) [Compound 129, (E)-4-(7-chloro-2-((3-(pyridin-3-yl)acrylamido)methyl)-2,3-dihydrobenzofuran-5-yl)benzoic acid], the IC50 in assay [1] (setting [4]), in assay [2] (setting [5]) and in assay [3] (setting [6]) was 5 to 30 µM in each case.

For `Nc1ccc(/C=C/C(=O)NCC2Cc3c(-c4cncc(C(=O)N5CCOCC5)c4)ccc(Cl)c3O2)cn1` (stereo not drawn) [Compound 913, (E)-3-(6-aminopyridin-3-yl)-N-((7-chloro-4-(5-(morpholine-4-carbonyl)pyridin-3-yl)-2,3-dihydrobenzofuran-2-yl)methyl)acrylamide], the figures for the IC50 in assay [1] (setting [7]), in assay [2] (setting [8]) and in assay [3] (setting [9]) were 5 to 30 µM, 0.1 to 5 µM and 0.1 to 5 µM, respectively.

Take `CC(=O)c1ccc(-c2cc(Cl)c3c(c2)CC(CNC(=O)/C=C/c2ccnnc2)O3)s1` (stereo not drawn) [Compound 273, (E)-N-((5-(5-acetylthiophen-2-yl)-7-chloro-2,3-dihydrobenzofuran-2-yl)methyl)-3-(pyridazin-4-yl)acrylamide]: the IC50 in assay [1] (setting [4]) was > 30 µM; in assay [2] (setting [5]), 5 to 30 µM; in assay [3] (setting [6]), > 30 µM.

Source of the values: patent US9938258B2 (Karyopharm Therapeutics Inc., priority 2012, dated 2018).
